Measured values published in PubChem BioAssay (NCI).
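The compound was tested at five concentrations on cells cultured in 96-well plates, with a 48-hour exposure period. Here, GI50 denotes the concentration required for 50% inhibition of growth. TGI denotes the concentration required for complete inhibition of growth.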

Experiments:
Assay in all cases: NCI-60 cell line screen, 48 h
[1] = system: MALME-3M melanoma
[2] = system: A549 NSCLC
[3] = system: SW-620 colon
[4] = system: OVCAR-8 ovarian
[5] = system: SF-295 CNS
[6] = system: HCT-116 colon
[7] = system: NCI-H460 lung
[8] = system: HCC-2998 colon
[9] = system: EKVX NSCLC
[10] = system: HCT-15 colon
[11] = system: K-562 leukemia
[12] = system: CAKI-1 renal
[13] = system: SF-539 CNS
[14] = system: COLO 205 colon
[15] = system: BT-549 breast
[16] = system: M14 melanoma
[17] = system: MOLT-4 leukemia
[18] = system: HL-60(TB) leukemia
[19] = system: UACC-257 melanoma
[20] = system: SK-MEL-28 melanoma
[21] = system: RXF 393 renal
[22] = system: 786-0 renal
[23] = system: A498 renal
[24] = system: T-47D breast
[25] = system: HS 578T breast
[26] = system: PC-3 prostate
[27] = system: SN12C renal
[28] = system: SK-MEL-5 melanoma
[29] = system: NCI-H226 lung
[30] = system: KM12 colon
[31] = system: UACC-62 melanoma
[32] = system: OVCAR-3 ovarian
[33] = system: MCF7 breast
[34] = system: UO-31 renal
[35] = system: HOP-92 NSCLC
[36] = system: RPMI-8226 leukemia
[37] = system: SK-MEL-2 melanoma
[38] = system: MDA-MB-435
[39] = system: SF-268 CNS
[40] = system: LOX IMVI melanoma
[41] = system: CCRF-CEM leukemia
[42] = system: OVCAR-5 ovarian
[43] = system: SK-OV-3 ovarian
[44] = system: NCI-H522 lung
[45] = system: HT29 colon
[46] = system: HOP-62 NSCLC
[47] = system: U251 CNS
[48] = system: ACHN renal
[49] = system: MDA-MB-231 breast
[50] = system: TK-10 renal
[51] = system: SNB-19 CNS
[52] = system: IGROV1 ovarian
[53] = system: OVCAR-4 ovarian
[54] = system: DU-145 prostate
[55] = system: NCI/ADR-RES ovarian
[56] = system: SR leukemia
[57] = system: NCI-H23 lung
[58] = system: SNB-75 CNS

c1ccc(CSc2nc(N3CCCCC3)c3cn[nH]c3n2)cc1
TGI [1]: 37.3 µM | TGI [2]: > 100 µM | TGI [3]: 44.5 µM | TGI [4]: 74.3 µM | TGI [5]: 63.7 µM | TGI [6]: 44.1 µM | TGI [7]: 64.5 µM | TGI [8]: 45 µM | TGI [9]: 65.3 µM | TGI [10]: > 100 µM | TGI [11]: > 100 µM | TGI [12]: > 100 µM | TGI [13]: 34.9 µM | TGI [14]: 62.4 µM | TGI [15]: 34.6 µM | TGI [16]: 37 µM | TGI [17]: > 100 µM | TGI [18]: > 100 µM | TGI [19]: 35.4 µM | TGI [20]: 41.3 µM | TGI [21]: 35.4 µM | TGI [22]: 79.8 µM | TGI [23]: 34.3 µM | TGI [24]: > 100 µM | TGI [25]: 43.9 µM | TGI [26]: 51 µM | TGI [27]: 42 µM | TGI [28]: 31 µM | TGI [29]: 44.9 µM | TGI [30]: 35.4 µM | TGI [31]: 32 µM | TGI [32]: 69.1 µM | TGI [33]: 72.4 µM | TGI [34]: 42.8 µM | TGI [35]: 72.8 µM | TGI [36]: 72.8 µM | TGI [37]: 32.5 µM | TGI [38]: 47.9 µM | TGI [39]: 61.3 µM | TGI [40]: 49.1 µM | TGI [41]: > 100 µM | TGI [42]: > 100 µM | TGI [43]: > 100 µM | TGI [44]: 36.4 µM | TGI [45]: > 100 µM | TGI [46]: 43.3 µM | TGI [47]: 40.7 µM | TGI [48]: 94.7 µM | TGI [49]: 36.8 µM | TGI [50]: 70.2 µM | TGI [51]: 79 µM | TGI [52]: 41.8 µM | TGI [53]: > 100 µM | TGI [54]: > 100 µM | TGI [55]: > 100 µM | TGI [56]: > 100 µM | TGI [57]: 66.5 µM | TGI [58]: 46.8 µM

O=C(CCl)Nc1ccc2c(c1)C(=O)c1ccccc1C2=O
GI50 [1]: 1.39 µM | TGI [1]: 3.11 µM | GI50 [2]: 8.51 µM | TGI [2]: 23.5 µM | GI50 [3]: 1.43 µM | TGI [3]: 2.92 µM | GI50 [4]: 2.35 µM | TGI [4]: 6.35 µM | GI50 [5]: 2.42 µM | TGI [5]: 10.5 µM | GI50 [6]: 0.79 µM | TGI [6]: 2.97 µM | GI50 [7]: 2.13 µM | TGI [7]: 5.61 µM | GI50 [8]: 1.86 µM | TGI [8]: 3.65 µM | GI50 [9]: 2.2 µM | TGI [9]: 6.35 µM | GI50 [10]: 0.73 µM | TGI [10]: 2.44 µM | GI50 [11]: 1.03 µM | TGI [11]: > 100 µM | GI50 [12]: 1.59 µM | TGI [12]: 2.96 µM | GI50 [13]: 2.44 µM | TGI [13]: 6.49 µM | GI50 [14]: 1.48 µM | TGI [14]: 3.33 µM | GI50 [15]: 1.46 µM | TGI [15]: 3.58 µM | GI50 [16]: 1.31 µM | TGI [16]: 2.98 µM | GI50 [17]: 2.24 µM | TGI [17]: > 100 µM | GI50 [18]: 2.41 µM | TGI [18]: 5.33 µM | GI50 [19]: 5.59 µM | TGI [19]: 13.9 µM | GI50 [20]: 3.8 µM | TGI [20]: 9.98 µM | GI50 [21]: 2 µM | TGI [21]: 3.78 µM | GI50 [22]: 1.67 µM | TGI [22]: 3.56 µM | GI50 [23]: 12.2 µM | TGI [23]: 25.8 µM | GI50 [24]: 1.11 µM | TGI [24]: 2.87 µM | GI50 [25]: 3.56 µM | TGI [25]: 20.1 µM | GI50 [26]: 2.77 µM | TGI [26]: 11.6 µM | GI50 [27]: 1.41 µM | TGI [27]: 3.01 µM | GI50 [28]: 1.16 µM | TGI [28]: 2.42 µM | GI50 [29]: 2.39 µM | TGI [29]: 6.76 µM | GI50 [30]: 3.03 µM | TGI [30]: 9.34 µM | GI50 [31]: 1.51 µM | TGI [31]: 3.17 µM | GI50 [32]: 1.72 µM | TGI [32]: 3.27 µM | GI50 [33]: 1.63 µM | TGI [33]: 3.64 µM | GI50 [34]: 1.73 µM | TGI [34]: 3.47 µM | GI50 [35]: 3.72 µM | TGI [35]: 9.73 µM | GI50 [36]: 2.04 µM | TGI [36]: 5.62 µM | GI50 [37]: 1.58 µM | TGI [37]: 3.85 µM | GI50 [38]: 2.05 µM | TGI [38]: 5.46 µM | GI50 [39]: 1.79 µM | TGI [39]: 4.59 µM | GI50 [40]: 0.39 µM | TGI [40]: 0.994 µM | GI50 [41]: 0.676 µM | TGI [41]: > 100 µM | GI50 [42]: 2.5 µM | TGI [42]: 6.89 µM | GI50 [43]: 3.71 µM | TGI [43]: 17 µM | GI50 [44]: 0.533 µM | TGI [44]: 1.22 µM | GI50 [45]: 1.66 µM | TGI [45]: 3.8 µM | GI50 [46]: 2.98 µM | TGI [46]: 8.5 µM | GI50 [47]: 1.86 µM | TGI [47]: 4.11 µM | GI50 [48]: 1.71 µM | TGI [48]: 3.17 µM | GI50 [49]: 1.65 µM | TGI [49]: 4.64 µM | GI50 [50]: 1.87 µM | TGI [50]: 3.72 µM | GI50 [51]: 2.94 µM | TGI [51]: 11.5 µM | GI50 [52]: 0.99 µM | TGI [52]: 3.23 µM | GI50 [53]: 3.48 µM | TGI [53]: 11.3 µM | GI50 [54]: 1.8 µM | TGI [54]: 3.36 µM | GI50 [55]: 2.16 µM | TGI [55]: 6.56 µM | GI50 [56]: 0.0567 µM | TGI [56]: > 100 µM | GI50 [57]: 1.7 µM | TGI [57]: 4.15 µM | GI50 [58]: 2.19 µM | TGI [58]: 8.44 µM
